Experimental data: PubChem BioAssay (NCI)
Values joined by “and” are separate entries in the source; they are usually repeats but may differ in a detail not shown here. Identical values can stand only once.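 Following 48 hours of exposure in 96-well plates, responses at five concentrations were used to interpolate endpoints linearly. GI50 marks 50% less growth. TGI marks complete inhibition of growth.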

How the values were obtained:
Assay in all cases: NCI tumour cell line growth inhibition, 48 h; in the data active = GI50 below about 0.43 µM; inactive = the rest
RPMI-8226 leukemia = tested on: RPMI-8226 leukemia
KM12 colon = tested on: KM12 colon
COLO 205 colon = tested on: COLO 205 colon
NCI-H522 lung = tested on: NCI-H522 lung
TK-10 renal = tested on: TK-10 renal
CAKI-1 renal = tested on: CAKI-1 renal
HL-60(TB) leukemia = tested on: HL-60(TB) leukemia
A549 NSCLC = tested on: A549 NSCLC
HCC-2998 colon = tested on: HCC-2998 colon
OVCAR-8 ovarian = tested on: OVCAR-8 ovarian
DMS 273 small cell lung = tested on: DMS 273 small cell lung
A498 renal = tested on: A498 renal
UACC-62 melanoma = tested on: UACC-62 melanoma
SNB-19 CNS = tested on: SNB-19 CNS
786-0 renal = tested on: 786-0 renal
LXFL 529 NSCLC = tested on: LXFL 529 NSCLC
UO-31 renal = tested on: UO-31 renal
DLD-1 colon = tested on: DLD-1 colon
SF-295 CNS = tested on: SF-295 CNS
RXF-631 renal = tested on: RXF-631 renal
SF-268 CNS = tested on: SF-268 CNS
IGROV1 ovarian = tested on: IGROV1 ovarian
SK-MEL-2 melanoma = tested on: SK-MEL-2 melanoma
M14 melanoma = tested on: M14 melanoma
HOP-92 NSCLC = tested on: HOP-92 NSCLC
HCT-116 colon = tested on: HCT-116 colon
EKVX NSCLC = tested on: EKVX NSCLC
M19-MEL melanoma = tested on: M19-MEL melanoma
SN12C renal = tested on: SN12C renal
MALME-3M melanoma = tested on: MALME-3M melanoma
SK-MEL-28 melanoma = tested on: SK-MEL-28 melanoma
OVCAR-4 ovarian = tested on: OVCAR-4 ovarian
SK-MEL-5 melanoma = tested on: SK-MEL-5 melanoma
DMS 114 small cell lung = tested on: DMS 114 small cell lung
K-562 leukemia = tested on: K-562 leukemia
SR leukemia = tested on: SR leukemia
NCI-H23 lung = tested on: NCI-H23 lung
UACC-257 melanoma = tested on: UACC-257 melanoma
NCI-H226 lung = tested on: NCI-H226 lung
CCRF-CEM leukemia = tested on: CCRF-CEM leukemia
SW-620 colon = tested on: SW-620 colon
SNB-78 CNS = tested on: SNB-78 CNS
SK-OV-3 ovarian = tested on: SK-OV-3 ovarian
HOP-62 NSCLC = tested on: HOP-62 NSCLC
SF-539 CNS = tested on: SF-539 CNS
OVCAR-3 ovarian = tested on: OVCAR-3 ovarian
XF 498 CNS = tested on: XF 498 CNS
HCT-15 colon = tested on: HCT-15 colon
HT29 colon = tested on: HT29 colon
SNB-75 CNS = tested on: SNB-75 CNS
MOLT-4 leukemia = tested on: MOLT-4 leukemia
ACHN renal = tested on: ACHN renal
NCI-H460 lung = tested on: NCI-H460 lung
MCF7 breast = tested on: MCF7 breast
SN12K1 renal = tested on: SN12K1 renal
U251 CNS = tested on: U251 CNS
P388 leukemia = tested on: P388 leukemia
LOX IMVI melanoma = tested on: LOX IMVI melanoma
NCI/ADR-RES ovarian = tested on: NCI/ADR-RES ovarian
HOP-18 NSCLC = tested on: HOP-18 NSCLC
OVCAR-5 ovarian = tested on: OVCAR-5 ovarian
KM20L2 colon = tested on: KM20L2 colon
RXF 393 renal = tested on: RXF 393 renal
P388/ADR leukemia = tested on: P388/ADR leukemia

COC12CCC(C(C(=O)c3ccccc3)=C1C(=O)c1ccccc1)C(O)C2 (stereo not drawn)
> 100000 nM: TGI (RPMI-8226 leukemia) | TGI (KM12 colon) | TGI (COLO 205 colon) | TGI (NCI-H522 lung) | TGI (TK-10 renal) | TGI (CAKI-1 renal) | TGI (HL-60(TB) leukemia) | TGI (A549 NSCLC) | TGI (HCC-2998 colon) | TGI (OVCAR-8 ovarian) | TGI (DMS 273 small cell lung) | TGI (A498 renal) | TGI (UACC-62 melanoma) | TGI (SNB-19 CNS) | TGI (786-0 renal) | TGI (LXFL 529 NSCLC) | TGI (UO-31 renal) | TGI (DLD-1 colon) | TGI (SF-295 CNS) | TGI (RXF-631 renal) | TGI (SF-268 CNS) | TGI (IGROV1 ovarian) | TGI (SK-MEL-2 melanoma) | TGI (M14 melanoma) | TGI (HOP-92 NSCLC) | TGI (HCT-116 colon) | TGI (EKVX NSCLC) | TGI (M19-MEL melanoma) | TGI (SN12C renal) | TGI (MALME-3M melanoma) | TGI (SK-MEL-28 melanoma) | TGI (OVCAR-4 ovarian) | TGI (SK-MEL-5 melanoma) | TGI (DMS 114 small cell lung) | TGI (K-562 leukemia) | TGI (SR leukemia) | TGI (NCI-H23 lung) | TGI (UACC-257 melanoma) | TGI (NCI-H226 lung) | TGI (CCRF-CEM leukemia) | TGI (SW-620 colon) | TGI (SNB-78 CNS) | TGI (SK-OV-3 ovarian) | TGI (HOP-62 NSCLC) | TGI (SF-539 CNS) | TGI (OVCAR-3 ovarian) | TGI (XF 498 CNS) | TGI (HCT-15 colon) | TGI (HT29 colon) | TGI (SNB-75 CNS) | TGI (MOLT-4 leukemia)

CC1[C@@H]2CC=C3[C@H]4CCC5Cc6nc7c(nc6C[C@@]5(C)C4(O)CC(=O)[C@]32CO[C@]12OC(C)(C)CC2O)CC1CC[C@@H]2C3=C[C@H]4O[C@@]5(O[C@@](C)(CO)C[C@@H]5O)C(C)[C@@]4(O)[C@]3(C)[C@@H](O)CC2[C@]1(C)C7 (stereo partly drawn)
329 nM and 2050 nM: GI50 (M19-MEL melanoma)
0.159 nM and 1.14 nM: TGI (MOLT-4 leukemia)
0.322 nM and < 0.36 nM: TGI (RPMI-8226 leukemia)
441 nM: TGI (MCF7 breast)
393 nM and > 3600 nM: TGI (SNB-19 CNS)
74.5 nM and 95.5 nM: TGI (U251 CNS)
16.4 nM and 29.4 nM: TGI (SK-MEL-2 melanoma)
142 nM and 29.2 nM: TGI (MALME-3M melanoma)
44.6 nM: TGI (786-0 renal)
active: GI50 (RPMI-8226 leukemia) < 0.36 nM | GI50 (CAKI-1 renal) 0.573 nM and 4.63 nM | GI50 (HL-60(TB) leukemia) 0.36 nM | GI50 (A549 NSCLC) 0.294 nM and 1.21 nM | GI50 (ACHN renal) 2.57 nM | GI50 (HCC-2998 colon) 321 nM | GI50 (NCI-H460 lung) 0.125 nM and 0.36 nM | GI50 (OVCAR-8 ovarian) 198 nM | GI50 (DMS 273 small cell lung) 0.36 nM | GI50 (A498 renal) 0.396 nM | GI50 (UACC-62 melanoma) 0.142 nM and 0.422 nM | GI50 (SNB-19 CNS) 2.41 nM and 16.4 nM | GI50 (786-0 renal) 0.142 nM | GI50 (U251 CNS) 0.112 nM and 0.36 nM | GI50 (LXFL 529 NSCLC) 0.139 nM | GI50 (DLD-1 colon) 71.2 nM and 86.6 nM | GI50 (SF-295 CNS) < 0.36 nM | GI50 (SF-268 CNS) 0.194 nM and 1.44 nM | GI50 (IGROV1 ovarian) 2.58 nM and 4.9 nM | GI50 (SK-MEL-2 melanoma) 0.29 nM and 1.17 nM | GI50 (M14 melanoma) 0.135 nM | GI50 (HOP-92 NSCLC) 0.104 nM and 0.36 nM | GI50 (EKVX NSCLC) 6.15 nM and 9.96 nM | GI50 (LOX IMVI melanoma) 0.15 nM and 1.14 nM | GI50 (MALME-3M melanoma) 2.98 nM and 3.69 nM | GI50 (OVCAR-5 ovarian) 14.2 nM and 7.34 nM | GI50 (SK-MEL-28 melanoma) 0.236 nM | GI50 (SK-MEL-5 melanoma) 0.717 nM and 6.38 nM | GI50 (DMS 114 small cell lung) 0.367 nM | GI50 (K-562 leukemia) 0.149 nM and 1.12 nM | GI50 (SR leukemia) 0.155 nM | GI50 (NCI-H23 lung) 0.71 nM and 2.24 nM | GI50 (CCRF-CEM leukemia) 0.126 nM and 0.441 nM | GI50 (SW-620 colon) 0.172 nM and 1.19 nM | GI50 (SK-OV-3 ovarian) 0.461 nM and 2.49 nM | GI50 (HOP-62 NSCLC) 0.104 nM and 0.36 nM | GI50 (SF-539 CNS) 0.36 nM | GI50 (KM20L2 colon) 0.664 nM and 2.02 nM | GI50 (RXF 393 renal) 0.36 nM | GI50 (HCT-15 colon) 2.34 nM and 12.7 nM | GI50 (HT29 colon) 0.918 nM and 1.23 nM | GI50 (SNB-75 CNS) 0.36 nM | GI50 (MOLT-4 leukemia) 0.12 nM and 0.36 nM
0.371 nM and 2.17 nM: TGI (RXF 393 renal)
256 nM: TGI (XF 498 CNS)
365 nM and > 3600 nM: TGI (CAKI-1 renal)
379 nM: TGI (P388/ADR leukemia)
874 nM and > 3600 nM: TGI (DLD-1 colon)
309 nM and 672 nM: TGI (SF-268 CNS)
> 3600 nM: TGI (HCC-2998 colon) | TGI (SN12K1 renal) | TGI (IGROV1 ovarian) | TGI (M19-MEL melanoma) | TGI (SN12C renal) | TGI (NCI/ADR-RES ovarian) | TGI (HOP-18 NSCLC) | TGI (OVCAR-4 ovarian) | TGI (OVCAR-3 ovarian)
15.5 nM and 140 nM: TGI (NCI-H460 lung)
3.82 nM: TGI (P388 leukemia)
6.58 nM and 64.4 nM: TGI (COLO 205 colon)
0.363 nM: TGI (M14 melanoma)
4.25 nM and 4.93 nM: TGI (A498 renal)
426 nM and 118 nM: TGI (OVCAR-5 ovarian)
223 nM and 1120 nM: TGI (A549 NSCLC)
143 nM and 377 nM: TGI (NCI-H23 lung)
105 nM and 846 nM: TGI (HCT-116 colon)
307 nM: TGI (TK-10 renal)
0.131 nM and < 0.36 nM: TGI (SF-295 CNS)
0.831 nM and 2.57 nM: TGI (HOP-62 NSCLC)
7.23 nM and 63.8 nM: TGI (CCRF-CEM leukemia)
152 nM and 814 nM: TGI (EKVX NSCLC)
2.01 nM: TGI (SK-MEL-28 melanoma)
73.7 nM and 589 nM: TGI (HCT-15 colon)
48.6 nM and 62.3 nM: TGI (HT29 colon)
381 nM: TGI (ACHN renal)
21 nM and 59.5 nM: TGI (K-562 leukemia)
70.4 nM and 67.5 nM: TGI (KM20L2 colon)
82.1 nM: TGI (SR leukemia)
0.387 nM: TGI (LXFL 529 NSCLC)

Cc1ncc(CCl)c(CCl)c1O
> 100000 nM: TGI (RPMI-8226 leukemia) | TGI (COLO 205 colon) | TGI (NCI-H522 lung) | TGI (CAKI-1 renal) | TGI (HL-60(TB) leukemia) | TGI (ACHN renal) | TGI (HCC-2998 colon) | TGI (DMS 273 small cell lung) | TGI (A498 renal) | TGI (UACC-62 melanoma) | TGI (786-0 renal) | TGI (LXFL 529 NSCLC) | TGI (UO-31 renal) | TGI (DLD-1 colon) | TGI (RXF-631 renal) | TGI (SF-268 CNS) | TGI (IGROV1 ovarian) | TGI (SK-MEL-2 melanoma) | TGI (M14 melanoma) | TGI (HOP-92 NSCLC) | TGI (HCT-116 colon) | TGI (M19-MEL melanoma) | TGI (SN12C renal) | TGI (MALME-3M melanoma) | TGI (SK-MEL-28 melanoma) | TGI (OVCAR-4 ovarian) | TGI (DMS 114 small cell lung) | TGI (K-562 leukemia) | TGI (SR leukemia) | TGI (NCI-H23 lung) | TGI (NCI-H226 lung) | TGI (CCRF-CEM leukemia) | TGI (SK-OV-3 ovarian) | TGI (HOP-62 NSCLC) | TGI (SF-539 CNS) | TGI (XF 498 CNS) | TGI (SNB-75 CNS) | TGI (MOLT-4 leukemia)
